Tests used:
HEK293 cells [1] = experiment: Preliminary screening as DNA vectors, GFP transfection of HEK293 cells; assay type: cell-based; settings: HEK293 cells; lipid/DOPE liposome with 75 ng plasmid DNA (psin-EGFP-IRES-Puro); number of cells expressing GFP divided by total number of nuclei (Hoechst)
Summary of the method: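 HEK293 cells in DMEM/10% FBS transfected with 75 ng EGFP plasmid per well complexed with amino lipid/DOPE liposomes in pH 5.6 sodium acetate. Hoechst nuclear stain added 20-24 h post-transfection, then cells cultured another 20-24 h. Confocal imaging gives GFP-positive cells as % of total nuclei.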

HEK293 cells [2] = experiment: Preliminary screening as mRNA vectors, EGFP mRNA transfection of HEK293 cells; assay type: cell-based; settings: 96-well plates, EGFP mRNA 50 ng per well, percentage of GFP fluorescent cells relative to total number of cells (Hoechst)
Summary of the method: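 HEK293 cells in DMEM plus 10% FBS transfected in 96-well format with 50 ng EGFP mRNA per well; Lipofectamine2000 served as positive control. Read-out is the percentage of GFP-fluorescent cells among total cells, counted by Hoechst nuclear stain.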

| Compound | Absolute mRNA transfection efficiency in HEK293 cells (HEK293 cells [2]) | other results |
| --- | --- | --- |
| CCCCCCCCCNc1nc(NCCCCCCCC)nc(NCCN2CCOCC2)n1 [Compound N8N9D2] |  | Absolute DNA transfection efficiency in HEK293 cells (HEK293 cells [1]): 0.0%; Absolute mRNA transfection efficiency in HEK293 cells (HEK293 cells [2]; HEK293 cells): 0.3% |
| CCCCCCCCCCCCCNc1nc(NCCN(CC)CC)nc(SCCCCCCCC)n1 [Compound D7S8N13] | 14.2% |  |
| CCCCCCCCCCCSc1nc(NCCN(C)C)nc(SCCCCCCC)n1 [Compound D1S7S11] | 4.1% |  |
| CCCCCCCCCCCCCCCCCCSc1nc(NCCCCCCCCCCC)nc(NCCN(C)C)n1 [Compound D1S18N11] | 1.3% |  |
| CCCCCCCCCCCCCCCSc1nc(NCCCCCCCCCCC)nc(NCCCN2CCN(C)CC2)n1 [Compound D9S15N11] | 9.2% |  |
| CCCCCCCCCCCCCCCCCCSc1nc(NCCN(C)C)nc(N(CCCCCCCCCCCC)CCCCCCCCCCCC)n1 [D1S18^2N12] | 0.0% |  |
| CCCCCCNc1nc(NCC2CCN(C)CC2)nc(SCCCCCC)n1 [Compound D10S6N6] | 0.3% |  |
| CCCCCCCCCCCCCCSc1nc(NCCCCCCCCC)nc(NCCN(C)C)n1 [Compound D1S14N9] | 39.0% |  |
| CCCCCCCCCCCCCCCCCCNc1nc(NCCN(CC)CC)nc(SCCCCCCCCCCC)n1 [Compound D7S11N18] | 10.8% |  |
| CCCCCCCCCCCCCCCNc1nc(NCCN2CCN(C)CC2)nc(SCCCCCCC)n1 [Compound D5S7N15] | 38.5% |  |
| CCCCCCCCCCCNc1nc(NCCCN2CCOCC2)nc(SCCCCCCCCCC)n1 [Compound D8S10N11] | 0.1% |  |
| CCCCCCCNc1nc(NCCCN2CCN(C)CC2)nc(SCCCCCCC)n1 [Compound D9S7N7] | 2.5% |  |
| CCCCCCSc1nc(NCCCN2CCOCC2)nc(SCCCCCC)n1 [Compound D8S6S6] | 0.0% |  |
| CCCCCCCCCCCCSc1nc(NCCN(C)C)nc(N(CCCCCCCCCCCC)CCCCCCCCCCCC)n1 [D1S12^2N12] | 2.6% |  |
| CCCCCCCCCCCCCCCCCCSc1nc(NCCN2CCOCC2)nc(N(CCCCCCCCCCCC)CCCCCCCCCCCC)n1 [D2S18^2N12] | 0.0% |  |
| CCCCCCCCCCCSc1nc(NCCCCCC)nc(NCCN2CCCCC2)n1 [Compound D4S11N6] | 2.7% |  |
| CCCCCCCCNc1nc(NCCCN(C)C)nc(SCCCCCCCC)n1 [Compound D6S8N8] | 3.5% |  |
| CCCCCCCCSc1nc(NCCN2CCN(C)CC2)nc(SCCCCCCC)n1 [Compound D5S7S8] | 16.6% |  |
| CCCCCCCCCCCCN(CCCCCCCCCCCC)c1nc(NCC2CCN(C)CC2)nc(SCCCCCCCC)n1 [D10S8^2N12] | 1.5% |  |
| CCCCCCCCCCCCCCCCSc1nc(NCCCCCCCCCCCC)nc(NCCCN(C)C)n1 [Compound D6S16N12] | 2.0% |  |
| CCCCCCCCCCSc1nc(NCCCCCCCC)nc(NCCCN2CCOCC2)n1 [Compound D8S10N8] | 0.4% |  |

| Compound | Absolute mRNA transfection efficiency in HEK293 cells (HEK293 cells [2]) | other results |
| --- | --- | --- |
| CCCCCCCCCCCNc1nc(NCCCN2CCOCC2)nc(SCCCCCCCCC)n1 [Compound D8S9N11] | 23.5% |  |
| CCCCCCCCCCCCCCCCCCNc1nc(NCCCN2CCN(C)CC2)nc(SCCCCCCC)n1 [Compound D9S7N18] | 37.1% |  |
| CCCCCCCSc1nc(NCCCCCC)nc(NCCN2CCOCC2)n1 [Compound D2S7N6] | 1.2% |  |
| CCCCCCCCCCCCCCCCNc1nc(NCCCN2CCOCC2)nc(SCCCCCCCCCCCCCCC)n1 [Compound D8S15N16] | 0.4% |  |
| CCCCCCCCCCCCCCCCSc1nc(NCCCCCCCCCCCCC)nc(NCCN2CCN(C)CC2)n1 [Compound D5S16N13] | 0.7% |  |
| CCCCCCCCCCCCCCCNc1nc(NCCCN(C)C)nc(SCCCCCCCCCCCC)n1 [Compound D6S12N15] | 1.6% |  |
| CCCCCCCCCCCCCCCNc1nc(NCC2CCN(C)CC2)nc(SCCCCCCCCCCCCCC)n1 [Compound D10S14N15] | 3.3% |  |
| CCCCCCCCCCCCSc1nc(NCCCCCC)nc(NCCN2CCN(C)CC2)n1 [Compound D5S12N6] | 0.3% |  |
| CCCCCCCCCCCCNc1nc(NCCN(CC)CC)nc(SCCCCCCCCCCC)n1 [Compound D7S11N12] | 7.8% |  |
| CCCCCCCCCCCCCNc1nc(NCC2CCN(C)CC2)nc(SCCCCCCCCCCCC)n1 [Compound D10S12N13] | 1.8% |  |
| CCCCCCCCCCCCCCCNc1nc(NCCN2CCCCC2)nc(SCCCCCCCCC)n1 [Compound D4S9N15] | 4.9% |  |
| CCCCCCCCCCCCSc1nc(NCCCN2CCN(C)CC2)nc(N(CCCCCCCCCCCC)CCCCCCCCCCCC)n1 [D9S12^2N12] | 0.8% |  |
| CCCCCCCCCCCCCCCCCCNc1nc(NCCN2CCOCC2)nc(SCCCCCCCCCCCCCCCC)n1 [Compound D2S16N18] | 0.0% |  |
| CCCCCCCCCCCCCCCSc1nc(NCCCN(C)C)nc(SCCCCCC)n1 [Compound D6S6S15] | 47.0% |  |
| CCCCCCCCCCCCCCCCCCSc1nc(NCCN(CC)CC)nc(N(CCCCCCCCCCCC)CCCCCCCCCCCC)n1 [D7S18^2N12] | 0.0% |  |
| CCCCCCCCCCCCSc1nc(NCCCN2CCOCC2)nc(SCCCCCCC)n1 [Compound D8S7S12] | 20.7% |  |
| CCCCCCCCCCCCCCCCCCSc1nc(NCCN(CC)CC)nc(SCCCCCCC)n1 [Compound D7S7S18] | 7.1% |  |
| CCCCCCCCCCCCCCCSc1nc(NCCCCCC)nc(NCCN2CCOCC2)n1 [Compound D2S15N6] | 4.9% |  |
| CCCCCCCCCCSc1nc(NCCCN2CCN(C)CC2)nc(SCCCCCCCC)n1 [Compound D9S8S10] | 79.4% |  |
| CCCCCCCCCCCCCCCCCCNc1nc(NCCN2CCN(C)CC2)nc(SCCCCCCCCCCCC)n1 [Compound D5S12N18] | 0.0% |  |
| CCCCCCCCCCCNc1nc(NCC2CCN(C)CC2)nc(SCCCCCCCC)n1 [Compound D10S8N11] | 81.5% |  |

| Compound | Absolute mRNA transfection efficiency in HEK293 cells (HEK293 cells [2]) | other results |
| --- | --- | --- |
| CCCCCCCCCCCCCCCCCCNc1nc(NCCN2CCCC2)nc(SCCCCCCCCC)n1 [Compound D3S9N18] | 26.7% |  |
| CCCCCCCCCCCCCCCCCCNc1nc(NCCCN(C)C)nc(SCCCCCC)n1 [Compound D6S6N18] | 60.1% |  |
| CCCCCCCCCNc1nc(NCCN(C)C)nc(SCCCCCCCCC)n1 [Compound D1S9N9] | 8.0% |  |
| CCCCCCCCCCSc1nc(NCCN2CCCC2)nc(SCCCCCCCC)n1 [Compound D3S8S10] | 12.0% |  |
| CCCCCCCCCCCCCCCCCCNc1nc(NCCN2CCCCC2)nc(SCCCCCCCC)n1 [Compound D4S8N18] | 3.5% |  |
| CCCCCCCCCCCCSc1nc(NCCN2CCCC2)nc(SCCCCCCC)n1 [Compound D3S7S12] | 5.4% |  |
| CCCCCCCCCCCCCCCNc1nc(NCCN2CCOCC2)nc(SCCCCCCC)n1 [Compound D2S7N15] | 3.1% |  |
| CCCCCCCCCCCCCCCSc1nc(NCCCCCCCCCCC)nc(NCCN2CCCCC2)n1 [Compound D4S15N11] | 1.0% |  |
| CCCCCCCCCCCSc1nc(NCCCCCCCC)nc(NCCN2CCOCC2)n1 [Compound D2S11N8] | 2.4% |  |
| CCCCCCCCCCCCCCCSc1nc(NCCCCCC)nc(NCC2CCN(C)CC2)n1 [Compound D10S15N6] | 18.4% |  |
| CCCCCCCCCCCCCCCCCCNc1nc(NCCN(C)C)nc(SCCCCCC)n1 [Compound D1S6N18] | 32.7% |  |
| CCCCCCCCCCCSc1nc(NCCCCCCC)nc(NCC2CCN(C)CC2)n1 [Compound D10S11N7] | 18.2% |  |
| CCCCCCCCCCCCCCSc1nc(NCCCN(C)C)nc(SCCCCCC)n1 [Compound D6S6S14] | 62.8% |  |
| CCCCCCCCCCCSc1nc(NCCCCCC)nc(NCCN2CCOCC2)n1 [Compound D2S11N6] | 5.4% |  |
| CCCCCCCCCCCCCCCCNc1nc(NCCN2CCCC2)nc(SCCCCCCCCCCC)n1 [Compound D3S11N16] | 15.7% |  |
| CCCCCCCCCCCSc1nc(NCCN2CCOCC2)nc(SCCCCCCCC)n1 [Compound D2S8S11] | 43.3% |  |
| CCCCCCCCCCCCSc1nc(NCCN2CCN(C)CC2)nc(SCCCCCCCC)n1 [Compound D5S8S12] | 47.4% |  |
| CCCCCCCCSc1nc(NCCN(CC)CC)nc(SCCCCCCC)n1 [Compound D7S7S8] | 42.1% |  |
| CCCCCCCCCCCCCCCCSc1nc(NCCN2CCN(C)CC2)nc(N(CCCCCCCCCCCC)CCCCCCCCCCCC)n1 [D5S16^2N12] | 0.1% |  |
| CCCCCCCCCCCCCCCCSc1nc(NCCCCCCC)nc(NCCN(C)C)n1 [Compound D1S16N7] | 65.1% |  |
| CCCCCCCCCCCCCCCCSc1nc(NCCCCCCCCCCCCC)nc(NCCN(C)C)n1 [Compound D1S16N13] | 0.9% |  |

Source: patent US20230123334A1, “AMINO LIPID COMPOUND, PREPARATION METHOD THEREFOR, AND APPLICATION THEREOF” (SHENZHEN SHENXIN BIOTECHNOLOGY CO., LTD., priority 2020, published 2023)
